The numbers were not newly measured in US20070298069A1, “Medical devices for release of low solubility therapeutic agents” (Boston Scientific Scimed, Inc., priority 2006, published 2007), which cites them from elsewhere.

This data set concerns most gram positive and gram negative aerobic and anaerobic bacteria, some yeast and fungi. The note with it: in most organisms tested.

`Oc1cc(Cl)ccc1Oc1ccc(Cl)cc1Cl` [triclosan]: the MIC is less than 0.3 ppm.
